Test systems include COLO 205 colon; SF-539 CNS; SNB-75 CNS; OVCAR-3 ovarian; SK-MEL-28 melanoma; LOX IMVI melanoma; HCT-15 colon; HL-60(TB) leukemia; SR leukemia; SK-MEL-2 melanoma.
What all share (assay): NCI anticancer screen, dose series, 48 h

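How tested: cells in 96-well plates exposed to compound for 48 hours at five concentrations. GI50: concentration for 50% inhibition of growth. At the TGI there is no net growth.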

Turning to `Cn1c(=O)c2c(ncn2CC(=O)Nc2ccc(-c3ccccc3)nn2)n(C)c1=O`, the GI50 in the assay on COLO 205 colon, in the assay on SF-539 CNS, in the assay on SNB-75 CNS, in the assay on OVCAR-3 ovarian, in the assay on SK-MEL-28 melanoma and in the assay with LOX IMVI melanoma was more than 100 µM each time. Moreover, the GI50 in the assay on HCT-15 colon is more than 100 µM; with HL-60(TB) leukemia it was 49.9 µM; in the assay on SR leukemia, 42.9 µM; in the assay with SK-MEL-2 melanoma it was more than 100 µM. Moreover, the TGI with COLO 205 colon, in the assay with SF-539 CNS, in the assay with SNB-75 CNS, in the assay with OVCAR-3 ovarian, in the assay with SK-MEL-28 melanoma and with LOX IMVI melanoma was more than 100 µM throughout. The TGI in the assay on HCT-15 colon, in the assay on HL-60(TB) leukemia, in the assay on SR leukemia and in the assay with SK-MEL-2 melanoma was more than 100 µM in each case.
On to `CC/C=C/C/C=C/C/C=C/C/C=C/C/C=C/C/C=C/CCC(=O)Nc1ccn([C@@H]2O[C@H](CO)[C@@H](O)C2(F)F)c(=O)n1`, for which the GI50 was 0.187 µM with COLO 205 colon; 0.0425 µM in the assay with SF-539 CNS; 0.863 µM in the assay on SNB-75 CNS; 4.79 µM in the assay with OVCAR-3 ovarian; 11.5 µM in the assay on SK-MEL-28 melanoma; 0.0512 µM in the assay on LOX IMVI melanoma. In addition, the GI50 in the assay with HCT-15 colon was 1.82 µM; in the assay with HL-60(TB) leukemia, 0.059 µM; with SR leukemia, 0.0387 µM; in the assay with SK-MEL-2 melanoma, 35.9 µM. In addition, the TGI in the assay with COLO 205 colon was 19.1 µM; in the assay on SF-539 CNS, 5.71 µM; in the assay on SNB-75 CNS it was more than 50.1 µM; in the assay with OVCAR-3 ovarian it was 25.5 µM; in the assay with SK-MEL-28 melanoma, 25.8 µM; in the assay on LOX IMVI melanoma it was 0.832 µM. In addition, the TGI was 41.3 µM in the assay on HCT-15 colon, 9.24 µM with HL-60(TB) leukemia, 8.3 µM with SR leukemia and more than 66.8 µM in the assay with SK-MEL-2 melanoma.
As for `O=C(N/N=C/c1c(Cl)cccc1Cl)c1ccc(C(F)(F)F)nc1Nc1cccc(C(F)(F)F)c1`, the GI50 in the assay on COLO 205 colon was 0.67 µM; with SF-539 CNS it was 2.11 µM; with SNB-75 CNS, 2.46 µM; in the assay on OVCAR-3 ovarian it was 0.284 µM; in the assay with SK-MEL-28 melanoma it was 1.82 µM; in the assay with LOX IMVI melanoma it was 0.677 µM. Besides, the GI50 in the assay with HCT-15 colon is 0.437 µM; with HL-60(TB) leukemia, 0.552 µM; in the assay with SR leukemia it was 0.457 µM; with SK-MEL-2 melanoma it was 1.87 µM. The TGI was 2.59 µM in the assay with COLO 205 colon; 8.09 µM with SF-539 CNS; 54.6 µM with SNB-75 CNS; 6.47 µM in the assay with OVCAR-3 ovarian; more than 37.5 µM with SK-MEL-28 melanoma; 11.5 µM with LOX IMVI melanoma. The TGI in the assay on HCT-15 colon is more than 100 µM; with SR leukemia, 14.4 µM; in the assay on SK-MEL-2 melanoma, 8.19 µM.
In the case of `COc1ccc(/C=C(/c2ccccc2)[N+](=O)[O-])cc1`, the GI50 in the assay with COLO 205 colon was 1.79 µM; in the assay with SF-539 CNS, 1.77 µM; in the assay with SNB-75 CNS, 1.16 µM; in the assay with OVCAR-3 ovarian it was 1.36 µM; in the assay with SK-MEL-28 melanoma, 1.57 µM; in the assay on LOX IMVI melanoma, 1.47 µM. For the same molecule, the GI50 in the assay on HCT-15 colon was 0.446 µM; in the assay with HL-60(TB) leukemia, 2.35 µM; in the assay on SR leukemia, 0.464 µM; in the assay on SK-MEL-2 melanoma it was 1.92 µM. The TGI in the assay with COLO 205 colon is 4.07 µM; in the assay on SF-539 CNS, 3.18 µM; with SNB-75 CNS, 2.44 µM; in the assay with OVCAR-3 ovarian, 2.69 µM; in the assay on SK-MEL-28 melanoma, 3.19 µM; with LOX IMVI melanoma, 2.89 µM. Moreover, the TGI in the assay with HCT-15 colon turned out to be 1.86 µM; in the assay with HL-60(TB) leukemia it was 6.87 µM; with SR leukemia, 6.95 µM; in the assay on SK-MEL-2 melanoma it was 4.44 µM.
For the molecule `C=CCn1c2c(sc1=S)C(S)N=CN2` (centres undefined), the TGI in the assay with COLO 205 colon, in the assay on SF-539 CNS, in the assay on SNB-75 CNS, in the assay on OVCAR-3 ovarian, in the assay on SK-MEL-28 melanoma and with LOX IMVI melanoma was more than 100 µM each time. Moreover, the TGI with HCT-15 colon, with HL-60(TB) leukemia, in the assay with SR leukemia and with SK-MEL-2 melanoma was more than 100 µM each time.
Turning to `CC1C(=O)OC2CC[N+]3([O-])CC=C(COC(=O)C(C)(O)C1(C)O)C23` (centres undefined), the TGI in the assay with COLO 205 colon, with SF-539 CNS, in the assay with SNB-75 CNS, in the assay on OVCAR-3 ovarian, in the assay on SK-MEL-28 melanoma and with LOX IMVI melanoma was more than 100 µM in each case. For the same molecule, the TGI in the assay on HCT-15 colon, in the assay on HL-60(TB) leukemia, with SR leukemia and in the assay on SK-MEL-2 melanoma was more than 100 µM each time.
Take `COCOc1ccc(C2(O)Oc3cc(OCOC)ccc3C2C)c(O)c1` (centres undefined): the TGI was determined as 32.2 µM with COLO 205 colon; 29.1 µM with SF-539 CNS; 30.4 µM in the assay on SNB-75 CNS; 26.2 µM in the assay on OVCAR-3 ovarian; 31 µM with SK-MEL-28 melanoma; 34.6 µM in the assay with LOX IMVI melanoma. In addition, the TGI in the assay on HCT-15 colon is 22.3 µM; in the assay on HL-60(TB) leukemia it was 44 µM; in the assay on SR leukemia it was 75.1 µM; in the assay on SK-MEL-2 melanoma, 32.7 µM.

Source of the values: PubChem BioAssay (NCI).
